In BindingDB's records for doi:10.7270/Q2XP73JZ (The Scripps Research Institute Molecular Screening Center, 2013):

target: T1, Methionine--tRNA ligase (Trypanosoma brucei brucei (strain 927/4 GUTat10.1), UniProt Q38C91)
T1 sequence (Q38C91 whole entry): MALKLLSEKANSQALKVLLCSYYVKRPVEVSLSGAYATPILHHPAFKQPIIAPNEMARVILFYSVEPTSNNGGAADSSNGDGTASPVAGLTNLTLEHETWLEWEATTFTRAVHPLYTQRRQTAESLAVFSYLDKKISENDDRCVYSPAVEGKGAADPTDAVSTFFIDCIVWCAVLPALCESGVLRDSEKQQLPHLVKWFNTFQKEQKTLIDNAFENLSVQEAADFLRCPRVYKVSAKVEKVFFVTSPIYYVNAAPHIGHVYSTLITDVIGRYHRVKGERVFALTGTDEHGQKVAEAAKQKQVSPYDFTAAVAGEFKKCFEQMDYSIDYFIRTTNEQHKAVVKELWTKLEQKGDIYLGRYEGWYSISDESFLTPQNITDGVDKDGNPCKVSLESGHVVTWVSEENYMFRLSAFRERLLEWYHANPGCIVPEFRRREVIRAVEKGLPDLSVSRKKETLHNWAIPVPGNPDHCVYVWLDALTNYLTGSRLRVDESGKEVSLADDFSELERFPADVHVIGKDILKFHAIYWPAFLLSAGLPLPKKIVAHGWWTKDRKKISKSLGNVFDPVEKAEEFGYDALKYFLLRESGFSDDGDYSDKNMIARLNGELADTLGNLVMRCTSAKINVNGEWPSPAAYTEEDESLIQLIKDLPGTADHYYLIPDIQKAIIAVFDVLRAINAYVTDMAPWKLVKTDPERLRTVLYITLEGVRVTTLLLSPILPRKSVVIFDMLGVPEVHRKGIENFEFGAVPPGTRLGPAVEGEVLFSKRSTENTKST

Q: Cc1[nH]c2ccccc2c1CN=Nc1nc2ccccc2[nH]1 [N-(1H-Benzoimidazol-2-yl)-N'-[1-(2-methyl-1H-indol-3-yl)-meth-(E)-ylidene]-hydrazine] was tested. Which IC50 did it give?
A: 36.9 µM

Q: How did the IC50 turn out when Cc1ccc(C(=O)NN2C(=O)/C(=C/c3nc4ccccc4[nH]3)SC2=S)cc1 was run?
A: > 119 µM

Q: For O=C(NCc1cc(Br)cc(Br)c1OC(=O)c1ccccc1[N+](=O)[O-])c1ccccc1, which IC50 is on record?
A: > 119 µM

Q: Which IC50 does the source give for N#Cc1ccccc1CSc1nc2cc(Br)c[nH]c-2n1 [2-[(6-bromo-1H-imidazo[4,5-b]pyridin-2-yl)sulfanylmethyl]benzonitrile] here?
A: > 119 µM

Q: With COc1ccc(NC(=O)COC(=O)CCCOc2ccc(Cl)cc2Cl)cc1 [4-(2,4-dichlorophenoxy)butanoic acid [2-(4-methoxyanilino)-2-oxoethyl] ester] as the compound, how does the IC50 read?
A: > 119 µM

Q: With Fc1ccccc1CSc1nc2ncc(Br)cc2[nH]1 [6-bromanyl-2-[(2-fluorophenyl)methylsulfanyl]-1H-imidazo[4,5-b]pyridine] as the compound, how does the IC50 read?
A: > 119 µM

Q: O=C(Nc1cccnc1)c1ccc(COc2cc(Cl)ccc2Cl)o1 [5-[(2,5-dichlorophenoxy)methyl]-N-(3-pyridinyl)-2-furancarboxamide] was tested. Which IC50 did it give?
A: > 119 µM

Q: For Cc1cc2c(c(=O)n1CC1CCCO1)C(c1ccc3c(c1)OCO3)C(C#N)C(=N)O2 (stereo not drawn), which IC50 is on record?
A: > 119 µM

Q: Which IC50 does the source give for Cc1cc(Cl)ccc1OCCCC(=O)NNC(=O)c1ccccc1O [N'-[4-(4-chloro-2-methylphenoxy)butanoyl]-2-hydroxybenzohydrazide] here?
A: > 119 µM

Q: With COc1ccc(NC(=O)Nc2cccc3cccnc23)cc1 [US9034574, XXIV] as the compound, how does the IC50 read?
A: 2.82 µM

Q: CC(N=Nc1nc2ccccc2[nH]1)c1ccc2c(c1)OCO2 (stereo not drawn) [SMR000354227] was tested. Which IC50 did it give?
A: > 119 µM

Q: Which IC50 does the source give for N#CC(N=Nc1cc(Cl)cc(Cl)c1)c1nnc2n1CCCCC2 (stereo not drawn) here?
A: 16.6 µM

Q: How did the IC50 turn out when C=C(c1ccc(O)cc1)c1sc(=S)n(CCC(=O)O)c1O [3-[(5Z)-5-[1-(4-hydroxyphenyl)ethylidene]-4-oxidanylidene-2-sulfanylidene-1,3-thiazolidin-3-yl]propanoic acid] was run?
A: 9.47 µM

Q: O=C(Nc1ccccc1)Nc1ccc(S(=O)(=O)N2CCCCC2)cc1 [SMR000070822] was tested. Which IC50 did it give?
A: > 119 µM

Q: How did the IC50 turn out when Clc1cccc(N=NC(Cc2nc3ccccc3[nH]2)c2ccccc2)c1 (stereo not drawn) [SMR000263830] was run?
A: 3.09 µM

Q: For COc1cc(OC)c(OC)cc1CN=Nc1nc2ccccc2[nH]1 [SMR000440059], which IC50 is on record?
A: > 119 µM

Q: With Cc1ccc2nc(-c3ccc(SCC(=O)Nc4ccc5c(c4)OCCO5)nc3)[nH]c2c1 [N-(2,3-dihydro-1,4-benzodioxin-6-yl)-2-[[5-(6-methyl-1H-benzimidazol-2-yl)-2-pyridinyl]thio]acetamide] as the compound, how does the IC50 read?
A: > 119 µM

Q: For COc1cccc(NC(=O)CSC(N)=O)c1 [S-[2-(3-methoxyanilino)-2-oxoethyl] thiocarbamate], which IC50 is on record?
A: 1.57 µM

Q: How did the IC50 turn out when Cc1cc(Br)cc(Br)c1OCC(=O)NNC(=O)Nc1ccccc1 [2-[(2,4-dibromo-6-methylphenoxy)acetyl]-N-phenylhydrazinecarboxamide] was run?
A: > 4.39 µM

Q: How did the IC50 turn out when Oc1cc(N(CCc2ccccc2)C(=S)Nc2ccccc2)c(O)n1-c1ccc(Br)cc1 [1-[1-(4-bromophenyl)-2,5-bis(oxidanylidene)pyrrolidin-3-yl]-3-phenyl-1-(2-phenylethyl)thiourea] was run?
A: 0.46 µM

Q: c1ccc2[nH]c(N=NCc3c[nH]c4ccccc34)nc2c1 [1-(1H-benzimidazol-2-yl)-2-[(Z)-indol-3-ylidenemethyl]diazane] was tested. Which IC50 did it give?
A: 32.2 µM

Q: For COc1ccc(CC(=O)OCC(=O)Nc2ccc(Br)cc2)cc1 [SMR000353950], which IC50 is on record?
A: > 119 µM

Q: For Oc1cc(SCc2nc3ccccc3[nH]2)c(O)n1-c1cccc(Cl)c1 [SMR000143477], which IC50 is on record?
A: 2.6 µM

Q: For COC(=O)Cn1c(CC(=O)Nc2ccc(Cl)cc2)c(O)n(-c2ccc(Cl)cc2)c1=S, which IC50 is on record?
A: 19.7 µM

Q: Which IC50 does the source give for O=C(CSc1ccc(-c2nc3ccccc3[nH]2)cn1)Nc1ccc(S(=O)(=O)N2CCCC2)cc1 [MLS000548715] here?
A: > 119 µM

Q: With COc1ccccc1NS(=O)(=O)c1cc(NC(=O)Nc2ccccc2)ccc1N1CCCCC1 [MLS000401499] as the compound, how does the IC50 read?
A: > 119 µM

Q: Which IC50 does the source give for Cc1csc(CNc2ncnc3ccc(-c4ccccc4Cl)cc23)c1 [SMR001318042] here?
A: > 119 µM

Q: How did the IC50 turn out when O=C(Cc1ccc(Br)cc1)NNC(=O)Nc1ccc(Cl)cc1 [SMR000227759] was run?
A: > 119 µM

Q: With COc1cc(CN=Nc2nc3ccccc3[nH]2)ccc1O [SMR000212232] as the compound, how does the IC50 read?
A: 102 µM

Q: With N#Cc1ccccc1CSc1ccc(-c2nc3ccccc3[nH]2)cn1 [2-[5-(1H-Benzoimidazol-2-yl)-pyridin-2-ylsulfanylmethyl]-benzonitrile] as the compound, how does the IC50 read?
A: > 119 µM

Q: With O=C(OCC(=O)c1c[nH]c2ccccc12)c1ccc(OC(F)F)cc1 [[2-(1H-indol-3-yl)-2-oxidanylidene-ethyl] 4-[bis(fluoranyl)methoxy]benzoate] as the compound, how does the IC50 read?
A: > 119 µM

Q: O=C(CSc1nc2ccc(Cl)cc2[nH]1)c1c[nH]c2ccccc12 [SMR000261830] was tested. Which IC50 did it give?
A: > 119 µM

Q: COC(=O)C(C=Nc1ccccc1)NC(=O)c1ccc(Cl)cc1Cl (stereo not drawn) was tested. Which IC50 did it give?
A: 2.71 µM
